Assay results taken from patent publication US12268739B2, “Use of toll-like receptor 2 (TLR-2) agonist for modulating human immune response” (Children's Medical Center Corporation, priority 2018, dated 2025).
“Also recorded” adds a separate entry of the source.

Tested on: C57BL/6 mice
Assay: Mouse immunization with rHA, anti-rHA IgG titers by ELISA
Type: in vivo
Conditions: adult C57BL/6 mice, rHA formulated with compound (100 nmol) i.m., prime Day 0, boost Day 28, versus rHA alone; listed as 080
Protocol: C57BL/6 mice were obtained from Charles River Laboratories and housed in specific pathogen-free conditions in the animal research facilities at Boston Children's Hospital.
For immunization experiments, adult mice were immunized intramuscularly (i.m.) in the right posterior thigh with 50 μl of vaccine containing 0.33 μg of each of the following recombinant influenza virus hemagglutinins (rHA): A/Michigan/45/2015 (H1N1), A/Hong Kong/4801/2014 (H3N2), and B/Brisbane/60/2008, contained in the 2016-2017 formulation of the FluBlok vaccine (Protein Sciences Corp.). Mice were immunized with a prime-boost schedule (two injections four weeks apart). Vaccine in all experimental groups was formulated with 10% (v/v) DMSO (except for the groups immunized with the small molecules since they were dissolved in DMSO) and 5% (v/v) Tween-80. As indicated for specific experimental groups, vaccine was also formulated with Aluminium hydroxide (100 μg) or compound 080 (100 nmol, final DMSO concentration 10%). Serum was collected 28 days post-prime (pre-boost blood sample) and 14 days post-boost for antibody detection. rHA-specific IgG were quantified by ELISA. […] The optical density was read at 450 nm Versamax microplate reader with SoftMax Pro Version 5 (both from Molecular Devices) and endpoint titers were calculated using as cutoff three times the optical density of the background.

## CNC(=O)c1c(NC(=O)c2ccc(S(=O)(=O)N(C)C)cc2)sc2c1CCC2 [Compound 80]
  Adjuvant activity in vivo (anti-rHA IgG titers): exerts adjuvant activity in vivo; also recorded: higher antibody titers; also recorded: demonstrates in vivo adjuvanticity
